In US20080071116A1, “Modulators of Lysophosphatidic Acid (Lpa) Signaling and the Use Thereof” (THE BOARD OF REGENTS OF THE UNIVERSITY OF TEXAS SYSTEM, priority 2004, published 2008):
Entries after “also recorded” stand apart in the source; their conditions may differ.

Assays:
[1] = tested on: DU145 cells; experiment: cell migration of DU145 cells; assay type: cell-based, human
[2] = tested on: HT29 cells; experiment: cell growth (cell viability) in HT29 cells; assay type: cell-based
[3] = tested on: DU145 cells; experiment: calcium mobilization assay in androgen insensitive prostate cancer DU145 cells; assay type: cell-based, human
[4] = tested on: PC-3 cells; experiment: lamellipodia formation in PC-3 cells; assay type: cell-based, human; settings: 30 μM
[5] = tested on: PC-3 cells; experiment: focal adhesion in PC-3 cells; assay type: cell-based, human; settings: FIG. 56
[6] = tested on: DU145 cells; experiment: cell growth (cell viability) in DU145 cells; assay type: cell-based, human
[7] = tested on: HT29 cells; experiment: lamellipodia formation in colon cancer HT29 cells; assay type: cell-based; settings: for inhibition of 14:0 LPA-induced lamellipodia formation / inhibition of 1% FBS-induced lamellipodia formation / inhibition of 10% FBS-induced lamellipodia formation: HT29
[8] = tested on: DU145 cells; experiment: focal adhesion in DU145 cells; assay type: cell-based, human; settings: FIG. 55
[9] = tested on: PC-3 cells; experiment: cell growth (cell viability) in PC-3 cells; assay type: cell-based, human; settings: for inhibition of cell growth (cell viability): PC-3
[10] = tested on: HT29 cells; experiment: calcium mobilization assay in colon cancer HT29 cells; assay type: cell-based; settings: HT29 cells (only express LPA2), FIGS. 21-22
Experimental: The procedures for these calcium mobilization assays are as followed: OVCAR3 cells and PC-3 cells were cultured in RPMI 1640 medium with 10% FBS (fetal bovine serum). HT29 cells were cultured in DMEM (high glucose) medium with 10% FBS. All cells were cultured at about 37° C. in a humidified atmosphere with 5% CO2. After starvation in serum-free medium for about 12-24 hours, cells were harvested and loaded with about 1 μM of Indo-1 AM in serum-free medium for about 45 min at 37° C. Cells were washed in PBS and resuspended at 2×10^6 cells/ml in a [Ca^2+]i assay buffer (Sodium chloride, NaCl, about 140 mM, potassium chloride, KCl, about 2 mM, magnesium chloride, MgCl2, about 1 mM, calcium chloride, CaCl2, about 2 mM, in about 25 mM HEPES buffer at pH 7.4 with about 10 mM of glucose). Cytoplasmic [Ca^2+]i was determined at an excitation wavelength of about 331 nm and an emission wavelength of 410 nm using a fluorescence spectrophotometer (Hitachi, F-4000). Approximately 3×10^6 cells were used for [Ca^2+]l determination in a stirred quartz cuvette kept at about 37° C. OMPT or 18:1 LPA was dissolved in about 0.1% BSA/PBS solution and applied immediately to the cells. To test other LPA derivatives of the invention, cells were exposed to the derivatives for about 3 minutes or for a period of various times in time course related experiments before a LPA agonist, such as 18:1 LPA, OMPT, or other LPAs was applied into the cuvette.
The concentration of calcium mobilization giving the half-maximal response (EC50) was obtained from the concentration-response curve fitted to a sigmoidal logistic equation, with the maximal calcium response set to 100% using the GraphPad Prism. Maximal response value is expressed as mean +/−s.e.m. EC50 value is expressed with 95% confidence.

CCCCCCCCCCCCCCCCCC(=O)OC[C@@H](O)COP(=O)(O)OCC(O)CO (mixture of isomers) [18:0 LPG, 1-stearoyl-2-hydroxy-sn-glycero-3-[phospho-rac-(1-glycerol)]]
reduction of cell migration [1]: could reduce cell migration | inhibition of cell growth (cell viability) ([2]; FBS (1%), FIG. 36): inhibition of cell growth (cell viability) at high concentrations | inhibition of cell growth (cell viability) ([2]; FBS (10%), FIG. 36): but not in the presence of high concentrations of FBS (10%) | inhibition of cell growth (cell viability) ([2]; in the presence of 10 μM of 14:0 LPA, FIG. 35): inhibition of cell growth (cell viability) at high concentrations | inhibition of 14:0 LPA-induced calcium mobilization [3]: inhibited calcium mobilization | effect on spontaneously activated lamellipodia ([4]; PC-3, serum-free, FIGS. 38-40): inhibit spontaneously activated lamellipodia | inhibition of 18:1 LPA-induced lamellipodia formation ([4]; PC-3, FIGS. 42-44): inhibition of 18:1 LPA-induced LPA2 receptor mediated lamellipodia formation | reduction of focal adhesion [5]: reduce focal adhesion | reduction of cell viability / cell growth [6]: reduced cell viability | inhibition of lamellipodia ([7]; HT29, serum-free medium, 10 and 30 μM, FIGS. 24-25): inhibits lamellipodia in HT29 cells in a concentration dependent manner | inhibition of 14:0 LPA-induced lamellipodia formation ([7]; 10 μM, FIG. 27): inhibition of 14:0 LPA-induced LPA2 receptor mediated lamellipodia formation | inhibition of 1% FBS-induced lamellipodia formation ([7]; 10 μM, FIG. 30): inhibition of 1% FBS-induced LPA2 receptor mediated lamellipodia formation | inhibition of 10% FBS-induced lamellipodia formation ([7]; 10 μM, FIG. 33): no inhibition | inhibition of 14:0 LPA-induced lamellipodia formation ([7]; 30 μM, FIG. 28): inhibition of 14:0 LPA-induced LPA2 receptor mediated lamellipodia formation | inhibition of 1% FBS-induced lamellipodia formation ([7]; 30 μM, FIG. 31): inhibition of 1% FBS-induced LPA2 receptor mediated lamellipodia formation | inhibition of 10% FBS-induced lamellipodia formation ([7]; 30 μM, FIG. 34): no inhibition | reduction of focal adhesion [8]: reduce focal adhesion | inhibition of cell growth (cell viability) ([9]; in the presence of 10 μM of 18:1 LPA, FIGS. 45-47): inhibition of cell growth (cell viability) at high concentrations | inhibition of cell growth (cell viability) ([9]; without LPA, FIGS. 46-47): inhibition of cell growth (cell viability) at high concentrations | reduction of cell viability / cell growth ([9]; PC-3 cells): reduced cell viability | inhibition of (18:1) LPA-induced calcium mobilization [10]: inhibited LPA-induced calcium mobilization; also recorded: effective inhibitors/antagonists
